According to patent US20160175284A1, “ESTROGEN RECEPTOR MODULATORS AND USES THEREOF” (Genentech, Inc., priority 2014, published 2016):

Molecular target: T1, estrogen receptor alpha (ESR1) in MCF7 breast cancer cells (Homo sapiens, UniProt P03372)
T1 construct: endogenous in cells; host or cells: MCF7 breast cancer cells
T1 sequence (P03372 1-595): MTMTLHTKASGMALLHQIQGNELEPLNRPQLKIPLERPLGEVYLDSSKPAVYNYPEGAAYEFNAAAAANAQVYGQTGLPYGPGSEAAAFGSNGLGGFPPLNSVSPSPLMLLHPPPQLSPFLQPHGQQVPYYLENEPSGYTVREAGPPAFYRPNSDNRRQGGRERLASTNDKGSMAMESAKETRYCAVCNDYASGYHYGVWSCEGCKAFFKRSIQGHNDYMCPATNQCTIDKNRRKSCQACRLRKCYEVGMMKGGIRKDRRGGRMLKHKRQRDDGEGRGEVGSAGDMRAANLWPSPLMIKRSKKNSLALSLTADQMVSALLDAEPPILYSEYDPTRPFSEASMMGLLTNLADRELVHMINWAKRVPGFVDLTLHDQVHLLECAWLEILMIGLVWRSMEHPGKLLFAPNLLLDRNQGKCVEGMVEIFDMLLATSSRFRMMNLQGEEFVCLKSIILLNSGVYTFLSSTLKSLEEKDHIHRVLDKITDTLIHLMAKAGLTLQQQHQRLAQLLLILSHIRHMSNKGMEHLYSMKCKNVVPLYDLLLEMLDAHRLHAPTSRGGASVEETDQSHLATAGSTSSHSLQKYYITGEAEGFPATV
Assay: Breast Cancer Cell ERa High Content Fluorescence Imaging Assay (F10)
Format: cell-based
Conditions: 4 hours, plateau of the maximal effect, DMSO and 5 nM Fulvestrant define 0% and 100% changes in ESR1
Procedure: Breast Cancer Cell ERa High Content Fluorescence Imaging Assay (F10)
Cell plates were incubated at 37° C., for 4 hours. Fixation and permeabilization were carried out using a Biotek EL406 plate washer and dispenser as follows. […] Samples were incubated 30 minutes. Well contents was aspirated and 50 ul/well of Phosphate Buffered Saline (PBS) containing 0.5% w/v bovine serum albumen, 0.5% v/v Triton X-100 (Antibody Dilution Buffer) was added to each well. Samples were incubated for 30 minutes. Well contents were aspirated and washed 3 times with 100 ul/well of PBS. Immunofluorescence staining of estrogen receptor alpha (ESR1) was carried out using a Biotek EL406 plate washer and dispenser as follows. […] Samples were incubated for 2 hours at room temperature. Samples were washed 4 times with 100 ul/well of PBS. […] Samples were incubated for 2 hours at room temperature. Samples were washed 3 times with 100 ul/well of PBS using a Biotek EL406. Quantitative fluorescence imaging of ESR1 was carried out using a Cellomics Arrayscan V (Thermo). […] Channel 1 (DNA stain) was used to define the nuclear region (Circ). […] Data analysis was carried out using Genedata Screener Software, with DMSO and 5 nM Fulvestrant treated samples being used to define the 0% and 100% changes in ESR1. The “Robust Fit” method was used to define the inflexion point of curve (EC50) and the plateau of the maximal effect (Sinf).

Row | Compound | ER-alpha MCF7 HCS Sinf (%)
1 | CC1=C(c2ccc(F)c(C#N)c2)[C@H](c2ccc(OCCN3CC(CF)C3)cc2)Oc2ccc(O)cc21 [Example 35, (S)-2-fluoro-5-(2-(4-(2-(3-(fluoromethyl)azetidin-1-yl)ethoxy)phenyl)-6-hydroxy-4-methyl-2H-chromen-3-yl)benzonitrile] | −97%
2 | CC1=C(c2cccc(Cl)c2)[C@@H](c2ccc(OCCN3CC(CF)C3)cc2)Oc2ccc(O)cc21 [Example 36, (R)-3-(3-chlorophenyl)-2-(4-(2-(3-(fluoromethyl)azetidin-1-yl)ethoxy)phenyl)-4-methyl-2H-chromen-6-ol] | −95%
3 | CC1=C(c2cccc(Cl)c2)[C@H](c2ccc(OCCN3CC(CF)C3)cc2)Oc2ccc(O)cc21 [Example 37, (S)-3-(3-chlorophenyl)-2-(4-(2-(3-(fluoromethyl)azetidin-1-yl)ethoxy)phenyl)-4-methyl-2H-chromen-6-ol] | −98%
4 | CC1=C(c2ccc(F)cc2Cl)[C@@H](c2ccc(OCCN3CC(CF)C3)cc2)Oc2ccc(O)cc21 [Example 40, (2R)-3-(2-chloro-4-fluoro-phenyl)-2-[4-[2-[3-(fluoromethyl)azetidin-1-yl]ethoxy]phenyl]-4-methyl-2H-chromen-6-ol] | −98%
5 | CC1=C(c2ccc(F)cc2Cl)[C@H](c2ccc(OCCN3CC(CF)C3)cc2)Oc2ccc(O)cc21 [Example 41, (2S)-3-(2-chloro-4-fluoro-phenyl)-2-[4-[2-[3-(fluoromethyl)azetidin-1-yl]ethoxy]phenyl]-4-methyl-2H-chromen-6-ol] | −100%
6 | CC1=C(c2cc(F)ccc2F)[C@@H](c2ccc(OCCN3CC(CF)C3)cc2)Oc2ccc(O)cc21 [Example 42, (2R)-3-(2,5-difluorophenyl)-2-[4-[2-[3-(fluoromethyl)azetidin-1-yl]ethoxy]phenyl]-4-methyl-2H-chromen-6-ol] | −94%
7 | CC1=C(c2cc(F)ccc2F)[C@H](c2ccc(OCCN3CC(CF)C3)cc2)Oc2ccc(O)cc21 [Example 43, (2S)-3-(2,5-difluorophenyl)-2-[4-[2-[3-(fluoromethyl)azetidin-1-yl]ethoxy]phenyl]-4-methyl-2H-chromen-6-ol] | −94%
8 | COc1cc(C2=C(C)c3cc(O)ccc3OC2c2ccc(OCCN3CC(CF)C3)cc2)ccc1O (centres unmarked) [Example 46, 2-(4-(2-(3-(fluoromethyl)azetidin-1-yl)ethoxy)phenyl)-3-(4-hydroxy-3-methoxyphenyl)-4-methyl-2H-chromen-6-ol] | −98%
